Experimental data reported in the NIST ThermoML archive (doi:10.1021/je020125e).

Details: 101.33 kPa, Liquid, Hot wire method

CC(C)CC(C)C [2,4-dimethylpentane]
Details | thermal conductivity [W/m/K] | thermal diffusivity [m2/s]
256.59 K | 0.1138 | –
256.99 K | 0.1135 | –
257.3 K | 0.1133 | –
257.56 K | – | 7.9e-08
258.58 K | – | 7.84e-08
259.37 K | – | 7.76e-08
276.3 K | 0.1082 | –
276.69 K | 0.1079 | –
277.04 K | 0.1077 | –
277.29 K | – | 7.41e-08
278.27 K | – | 7.29e-08
279.16 K | – | 7.28e-08
296.19 K | 0.1025 | –
296.63 K | 0.1022 | –
296.97 K | 0.102 | –
297.18 K | – | 6.9e-08
298.25 K | – | 6.83e-08
299.08 K | – | 6.77e-08
316.55 K | 0.09692 | –
317.01 K | 0.09668 | –
317.37 K | 0.09645 | –
317.55 K | – | 6.43e-08
318.67 K | – | 6.39e-08
319.53 K | – | 6.32e-08
333.96 K | 0.0924 | –
334.43 K | 0.09213 | –
334.81 K | 0.09197 | –
334.93 K | – | 5.99e-08
336.06 K | – | 5.98e-08
336.97 K | – | 5.96e-08

CCCCCC(C)C [2-methylheptane]
Details | thermal conductivity [W/m/K] | thermal diffusivity [m2/s]
259.12 K | 0.1244 | –
259.33 K | 0.1242 | –
259.51 K | 0.1242 | –
260.04 K | – | 8.23e-08
260.63 K | – | 8.22e-08
261.12 K | – | 8.22e-08
277.53 K | 0.1195 | –
277.77 K | 0.1194 | –
277.96 K | 0.1193 | –
278.48 K | – | 7.83e-08
279.11 K | – | 7.84e-08
279.63 K | – | 7.81e-08
295.72 K | 0.1145 | –
295.95 K | 0.1144 | –
296.16 K | 0.1143 | –
296.69 K | – | 7.41e-08
297.31 K | – | 7.42e-08
297.85 K | – | 7.39e-08
313.83 K | 0.1097 | –
314.07 K | 0.1095 | –
314.3 K | 0.1095 | –
314.83 K | – | 7.05e-08
315.46 K | – | 7.04e-08
316.05 K | – | 7.06e-08
327.74 K | 0.1061 | –
328 K | 0.1059 | –
328.23 K | 0.1058 | –
328.77 K | – | 6.82e-08
329.44 K | – | 6.79e-08
330.02 K | – | 6.78e-08

CCCCC(C)C [2-methylhexane]
Details | thermal conductivity [W/m/K] | thermal diffusivity [m2/s]
256.24 K | 0.1227 | –
256.67 K | 0.1226 | –
257.02 K | 0.1224 | –
257.46 K | – | 8.41e-08
258.65 K | – | 8.33e-08
259.64 K | – | 8.28e-08
275.56 K | 0.1172 | –
276 K | 0.1168 | –
276.39 K | 0.1167 | –
276.83 K | – | 8e-08
278.06 K | – | 7.86e-08
279.12 K | – | 7.85e-08
296.46 K | 0.1109 | –
296.93 K | 0.1106 | –
297.4 K | 0.1105 | –
297.8 K | – | 7.5e-08
299.08 K | – | 7.43e-08
300.34 K | – | 7.38e-08
317.4 K | 0.1049 | –
317.92 K | 0.1047 | –
318.35 K | 0.1045 | –
318.77 K | – | 7.02e-08
320.16 K | – | 6.96e-08
321.33 K | – | 6.94e-08
337.1 K | 0.09956 | –
337.65 K | 0.0992 | –
338.11 K | 0.09905 | –
338.49 K | – | 6.63e-08
339.91 K | – | 6.52e-08
341.12 K | – | 6.49e-08

CCCC(C)C [2-methylpentane]
Details | thermal conductivity [W/m/K] | thermal diffusivity [m2/s]
256.56 K | 0.1182 | –
256.89 K | 0.1181 | –
257.29 K | 0.1179 | –
257.79 K | – | 8.23e-08
258.59 K | – | 8.18e-08
259.61 K | – | 8.15e-08
277.01 K | 0.1114 | –
277.35 K | 0.1113 | –
277.8 K | 0.1111 | –
278.28 K | – | 7.65e-08
279.1 K | – | 7.61e-08
280.22 K | – | 7.57e-08
297.36 K | 0.1049 | –
297.71 K | 0.1048 | –
298.16 K | 0.1046 | –
298.66 K | – | 7.11e-08
299.5 K | – | 7.09e-08
300.57 K | – | 7.04e-08
314.15 K | 0.09989 | –
314.51 K | 0.09978 | –
314.99 K | 0.09959 | –
315.5 K | – | 6.71e-08
316.34 K | – | 6.69e-08
317.47 K | – | 6.65e-08
328.29 K | 0.09597 | –
328.64 K | 0.09583 | –
329.15 K | 0.09564 | –
329.7 K | – | 6.42e-08
330.51 K | – | 6.39e-08
331.7 K | – | 6.36e-08

CCC(C)(C)CC [3,3-dimethylpentane]
Details | thermal conductivity [W/m/K] | thermal diffusivity [m2/s]
256.11 K | 0.1116 | –
256.71 K | 0.1112 | –
256.82 K | – | 7.8e-08
257.04 K | 0.1113 | –
257.62 K | – | 7.76e-08
258.25 K | – | 7.71e-08
276.17 K | 0.106 | –
276.5 K | 0.1058 | –
276.78 K | 0.1057 | –
276.87 K | – | 7.25e-08
277.64 K | – | 7.2e-08
278.3 K | – | 7.18e-08
296.01 K | 0.1005 | –
296.03 K | 0.1006 | –
296.39 K | 0.1004 | –
296.63 K | 0.1002 | –
296.64 K | – | 6.59e-08
296.69 K | – | 6.66e-08
297.52 K | – | 6.68e-08
298.08 K | – | 6.59e-08
316.38 K | 0.09528 | –
316.67 K | 0.09499 | –
316.93 K | 0.09481 | –
317.05 K | – | 6.22e-08
317.7 K | – | 6.09e-08
318.3 K | – | 6.05e-08
333.75 K | 0.09074 | –
334.1 K | 0.09063 | –
334.37 K | 0.09047 | 5.74e-08
335.16 K | – | 5.76e-08
335.77 K | – | 5.74e-08

CCC(CC)CC [3-ethylpentane]
Details | thermal conductivity [W/m/K] | thermal diffusivity [m2/s]
257.28 K | 0.1253 | –
257.54 K | 0.1252 | –
257.83 K | 0.1251 | –
258.36 K | – | 8.28e-08
259.11 K | – | 8.26e-08
259.89 K | – | 8.25e-08
277.62 K | 0.119 | –
277.89 K | 0.1188 | –
278.19 K | 0.1187 | –
278.75 K | – | 7.78e-08
279.49 K | – | 7.73e-08
280.3 K | – | 7.72e-08
296.33 K | 0.1132 | –
296.62 K | 0.113 | –
296.78 K | 0.113 | –
297.48 K | – | 7.29e-08
298.26 K | – | 7.28e-08
298.69 K | – | 7.28e-08
313.96 K | 0.1081 | –
314.27 K | 0.1079 | –
314.58 K | 0.1078 | –
315.16 K | – | 6.95e-08
315.99 K | – | 6.93e-08
316.82 K | – | 6.9e-08
331.22 K | 0.1032 | –
331.29 K | 0.1029 | –
331.56 K | 0.1031 | –
332.45 K | – | 6.59e-08
333.34 K | – | 6.59e-08
334.2 K | – | 6.55e-08

CCCCC(C)CC (configuration not stated) [3-methylheptane]
Details | thermal conductivity [W/m/K] | thermal diffusivity [m2/s]
259.08 K | 0.1255 | –
259.32 K | 0.1253 | –
259.58 K | 0.1252 | –
260.01 K | – | 8.29e-08
260.65 K | – | 8.28e-08
261.32 K | – | 8.27e-08
277.99 K | 0.1204 | –
278.23 K | 0.1203 | –
278.37 K | 0.1202 | –
278.95 K | – | 7.83e-08
279.57 K | – | 7.83e-08
279.93 K | – | 7.84e-08
297.36 K | 0.115 | –
297.63 K | 0.115 | –
297.91 K | 0.115 | –
298.32 K | – | 7.41e-08
299.02 K | – | 7.44e-08
299.76 K | – | 7.47e-08
315.56 K | 0.1101 | –
315.84 K | 0.1101 | –
316.12 K | 0.1099 | –
316.52 K | – | 6.98e-08
317.22 K | – | 7e-08
317.93 K | – | 6.98e-08
331.93 K | 0.1058 | –
332.21 K | 0.1057 | –
332.51 K | 0.1056 | –
332.93 K | – | 6.7e-08
333.64 K | – | 6.7e-08
334.38 K | – | 6.69e-08
